According to patent publication US20160030416A1, “METHODS OF TREATING B2-BRADYKININ RECEPTOR MEDIATED ANGIOEDEMA” (SHIRE HUMAN GENETIC THERAPIES, INC., priority 2013, published 2016):

Tested on: BK-induced human umbilical vein contractions
Test: cells
Description: The inhibition effect of CFMQ on bradykinin induced […] was examined in an ex vivo functional assay of human umbilical vein contraction, which is considered a gold standard for bradykinin activity measurements. […] Firazyr®). Following a 30 minute incubation, BK-induced vein contractions were initiated in a cumulative manner (final concentration of 10 μM), followed by maximal calibration contraction induction by 10 μM serotonin. The tension increase for each dose response was calculated in relation to the (maximal) response towards serotonin, graphed as a dose-response curve and used to calculate an effective concentration at 50% (EC50) value (FIG. 6)

NC(N)=NCCC[C@@H](N)C(=O)N[C@@H](CCCN=C(N)N)C(=O)N1CCC[C@H]1C(=O)N1C[C@H](O)C[C@H]1C(=O)NCC(=O)N[C@@H](Cc1cccs1)C(=O)N[C@@H](CO)C(=O)N1Cc2ccccc2C[C@@H]1C(=O)N1[C@H](C(=O)N[C@@H](CCCN=C(N)N)C(=O)O)C[C@@H]2CCCC[C@@H]21 [Firazyr® (icatibant), icatibant, reference compound]
EC50: 2.5 nM
